# US20260285850A1, “SUBSTITUTED OXAZOLIDINONES AND IMIDAZOLINONES AS HERBICIDES” (FMC CORPORATION, priority 2023, published 2026)
# Columns and labels:
# Format in all cases: in vivo
# [1] = tested on: green foxtail (Setaria viridis); test: Test A postemergence application, visual injury rating 0-100; settings: Postemergence
# In short: (§1)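 Compound in a non-phytotoxic, surfactant-containing solvent is applied either as a directed soil spray before seedlings emerge or onto emerged plants 2-10 cm tall; pots hold a loam-sand blend. Plants grow 10 days under greenhouse conditions and are rated by eye against untreated controls (0 no effect, 100 complete control).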
# [2] = tested on: horseweed (Erigeron canadensis); test: as above; settings: Postemergence
# In short: as §1
# [3] = tested on: barnyardgrass (Echinochloa crus-galli); test: as above; settings: Postemergence
# In short: as §1
# [4] = tested on: blackgrass (Alopecurus myosuroides); test: as above; settings: Postemergence
# In short: as §1
# corn (Zea mays) [5] = test: as above; settings: Postemergence
# In short: as §1
# kochia (Bassia scoparia) [6] = test: as above; settings: Postemergence
# In short: as §1
# soybean (Glycine max) [7] = test: as above; settings: Postemergence
# In short: as §1
# [8] = tested on: wheat (Triticum aestivum); test: as above; settings: Postemergence
# In short: as §1
# [9] = tested on: oat, wild (wild oat, Avena fatua); test: as above; settings: Postemergence
# In short: as §1
# [10] = tested on: ragweed (common ragweed, Ambrosia artemisiifolia); test: as above; settings: Postemergence
# In short: as §1
# [11] = tested on: ryegrass, Italian (italian ryegrass, Lolium multiflorum); test: as above; settings: Postemergence
# In short: as §1
# [12] = tested on: palmer (palmer amaranth, palmer pigweed, Amaranthus palmeri); test: as above; settings: Postemergence
# In short: as §1
# [13] = tested on: galium (catchweed bedstraw, Galium aparine); test: as above; settings: Postemergence
# In short: as §1
# [14] = tested on: green foxtail (Setaria viridis); test: Test A preemergence soil spray, visual injury rating 0-100; settings: 10 days, 0 = no effect, 100 = complete control
# In short: as §1
# [15] = tested on: barnyardgrass (Echinochloa crus-galli); test: as above; settings: 10 days, 0 = no effect, 100 = complete control
# In short: as §1
# [16] = tested on: blackgrass (Alopecurus myosuroides); test: as above; settings: 10 days, 0 = no effect, 100 = complete control
# In short: as §1
# corn (Zea mays) [17] = test: as above; settings: 10 days, 0 = no effect, 100 = complete control
# In short: as §1
# kochia (Bassia scoparia) [18] = test: as above; settings: 10 days, 0 = no effect, 100 = complete control
# In short: as §1
# soybean (Glycine max) [19] = test: as above; settings: 10 days, 0 = no effect, 100 = complete control
# In short: as §1
# [20] = tested on: wheat (Triticum aestivum); test: as above; settings: 10 days, 0 = no effect, 100 = complete control
# In short: as §1
# [21] = tested on: oat, wild (wild oat, Avena fatua); test: as above; settings: 10 days, 0 = no effect, 100 = complete control
# In short: as §1
# [22] = tested on: ragweed (common ragweed, Ambrosia artemisiifolia); test: as above; settings: 10 days, 0 = no effect, 100 = complete control
# In short: as §1
# [23] = tested on: ryegrass, Italian (italian ryegrass, Lolium multiflorum); test: as above; settings: 10 days, 0 = no effect, 100 = complete control
# In short: as §1
# [24] = tested on: palmer (palmer amaranth, palmer pigweed, Amaranthus palmeri); test: as above; settings: 10 days, 0 = no effect, 100 = complete control
# In short: as §1
# rice (Oryza sativa) = test: Test B flooded paddy test, visual plant response rating 0-100; settings: 250 g ai/ha, Flood, applied to paddy water, evaluated after 13 days
# In short: (§2)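 Compounds applied to standing paddy water (3 cm above soil, maintained for the test duration) on 2-leaf-stage plants; visual rating vs controls at 13 days, greenhouse.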
# [25] = tested on: ducksalad (Heteranthera limosa); test: as above; settings: 250 g ai/ha, Flood, applied to paddy water, evaluated after 13 days
# In short: as §2
# [26] = tested on: barnyardgrass (Echinochloa crusgalli); test: as above; settings: 250 g ai/ha, Flood, applied to paddy water, evaluated after 13 days
# In short: as §2
# [27] = tested on: sedge, umbrella (small-flower umbrella sedge, Cyperus difformis); test: as above; settings: 250 g ai/ha, Flood, applied to paddy water, evaluated after 13 days
# In short: as §2
# [28] = 31 g ai/ha, greenhouse 10 days, 0 no effect, 100 complete control
# [29] = 125 g ai/ha, 10 days, 0 is no effect, 100 is complete control
compound,measurement,setting,value
CC1(C(=O)NC2C=CC(C(=O)OCC(F)(F)F)C2)CN(c2cc(Cl)cc(Cl)c2)C(=O)O1 (stereo not shown) [Compound 64],"Foxtail, Green plant response rating (0 to 100 scale)",[1]; [28],90
same,"Foxtail, Green plant response rating (0 to 100 scale)",[1]; [29],90
same,Horseweed plant response rating (0 to 100 scale),[2]; [28],50
same,Horseweed plant response rating (0 to 100 scale),[2]; [29],80
same,Barnyardgrass plant response rating (0 to 100 scale),[3]; [28],100
same,Barnyardgrass plant response rating (0 to 100 scale),[3]; [29],100
same,Blackgrass plant response rating (0 to 100 scale),[4]; [28],90
same,Blackgrass plant response rating (0 to 100 scale),[4]; [29],90
same,Corn plant response rating (0 to 100 scale),corn (Zea mays) [5]; [28],90
same,Corn plant response rating (0 to 100 scale),corn (Zea mays) [5]; [29],100
same,Kochia plant response rating (0 to 100 scale),kochia (Bassia scoparia) [6]; [28],80
same,Kochia plant response rating (0 to 100 scale),kochia (Bassia scoparia) [6]; [29],80
same,Soybean plant response rating (0 to 100 scale),soybean (Glycine max) [7]; [28],80
same,Soybean plant response rating (0 to 100 scale),soybean (Glycine max) [7]; [29],90
same,Wheat plant response rating (0 to 100 scale),[8]; [28],90
same,Wheat plant response rating (0 to 100 scale),[8]; [29],90
same,"Oat, Wild plant response rating (0 to 100 scale)",[9]; [28],90
same,"Oat, Wild plant response rating (0 to 100 scale)",[9]; [29],90
same,Ragweed plant response rating (0 to 100 scale),[10]; [28],50
same,Ragweed plant response rating (0 to 100 scale),[10]; [29],80
same,"Ryegrass, Italian plant response rating (0 to 100 scale)",[11]; [28],80
same,"Ryegrass, Italian plant response rating (0 to 100 scale)",[11]; [29],90
same,"Amaranth, Palmer / Pigweed, Palmer plant response rating (0 to 100 scale)",[12]; [28],90
same,"Amaranth, Palmer / Pigweed, Palmer plant response rating (0 to 100 scale)",[12]; [29],90
same,Galium plant response rating (0 to 100 scale),[13]; [28],80
same,Galium plant response rating (0 to 100 scale),[13]; [29],80
same,"Foxtail, Green plant response rating (0-100)",[14]; 31 g ai/ha,70
same,"Foxtail, Green plant response rating (0 to 100 scale)",[14]; 125 g ai/ha,90
same,Barnyardgrass plant response rating (0-100),[15]; 31 g ai/ha,80
same,Barnyardgrass plant response rating (0 to 100 scale),[15]; 125 g ai/ha,90
same,Blackgrass plant response rating (0-100),[16]; 31 g ai/ha,20
same,Blackgrass plant response rating (0 to 100 scale),[16]; 125 g ai/ha,70
same,Corn plant response rating (0-100),corn (Zea mays) [17]; 31 g ai/ha,0
same,Corn plant response rating (0 to 100 scale),corn (Zea mays) [17]; 125 g ai/ha,80
same,Kochia plant response rating (0-100),kochia (Bassia scoparia) [18]; 31 g ai/ha,50
same,Kochia plant response rating (0 to 100 scale),kochia (Bassia scoparia) [18]; 125 g ai/ha,90
same,Soybean plant response rating (0-100),soybean (Glycine max) [19]; 31 g ai/ha,0
same,Soybean plant response rating (0 to 100 scale),soybean (Glycine max) [19]; 125 g ai/ha,40
same,Wheat plant response rating (0-100),[20]; 31 g ai/ha,60
same,Wheat plant response rating (0 to 100 scale),[20]; 125 g ai/ha,90
same,"Oat, Wild plant response rating (0-100)",[21]; 31 g ai/ha,20
same,"Oat, Wild plant response rating (0 to 100 scale)",[21]; 125 g ai/ha,50
same,Ragweed plant response rating (0-100),[22]; 31 g ai/ha,0
same,Ragweed plant response rating (0 to 100 scale),[22]; 125 g ai/ha,80
same,"Ryegrass, Italian plant response rating (0-100)",[23]; 31 g ai/ha,50
same,"Ryegrass, Italian plant response rating (0 to 100 scale)",[23]; 125 g ai/ha,90
same,"Amaranth, Palmer plant response rating (0-100)",[24]; 31 g ai/ha,100
same,"Amaranth, Palmer plant response rating (0 to 100 scale)",[24]; 125 g ai/ha,100
same,"Plant response rating, Rice (0 to 100 scale, 0 is no effect and 100 is complete control)",rice (Oryza sativa),15
same,"Plant response rating, Ducksalad (0 to 100 scale, 0 is no effect and 100 is complete control)",[25],90
same,"Plant response rating, Barnyardgrass (0 to 100 scale, 0 is no effect and 100 is complete control)",[26],50
same,"Plant response rating, Sedge, Umbrella (0 to 100 scale, 0 is no effect and 100 is complete control)",[27],75
